# How the values were obtained:
# [1] = Blood concentration parameters after administration to mice; format: in vivo; details: mouse, in vivo, mice, PO, 50 mg/kg
# Source text: […] "Cmax" is the maximum concentration achieved, "t1/2" is the half-life or time for half of the absorbed material to disappear from the blood stream.
# [2] = Chemical stability in aqueous solution (half-life); format: physicochemical
# Experimental: Chemical stability in aqueous solution at pH 7.4 and pH 2.0 is reported as half-life (t1/2). These values are determined by interpolation from a graph of concentration of test substance remaining in solution after storage under selected conditions for various periods of time.
# [3] = test system: Staph. serum; test: M.I.C., tube dilution method in Nutrient Broth; format: cell-based
# Experimental: The following procedures illustrate the application of the process of this invention to the preparation of a variety of compounds of Formula V. In many instances, data illustrating the biological activity of the substances as antibiotics are presented. […] It is determined by interpolation from a graph of concentration versus number of cells following exposure of the organism to the test compound under growth conditions. Another parameter such as optical density which is proportional to the cell count may be used. In some instances MIC₉₀ values are also given. The latter refers to 90% growth inhibition.
# [4] = 37°C, pH 2.0 citric acid buffer, by hplc, read-out: t1/2, pH 2
# [5] = 37°C, pH 7.4 phosphate buffer, by uv, read-out: t1/2, pH 7.4 (converted)
# [6] = phosphate buffer, pH 7.4, 37°C, pH 7.4 phosphate buffer, by uv, read-out: t1/2, pH 7.4 (converted)
# [7] = citric acid buffer, pH 2, 37°C, pH 2.0 citric acid buffer, by hplc, read-out: t1/2, pH 2
compound,measurement,setting,value
"C[C@@H](N)C1C(=O)N2C(C(=O)O)=C(SCc3ccccc3)[C@H](C)[C@H]12 (stereo in doubt) [Procedure 12, (5S,6S) 6-(1′R-Aminoethyl)-3-benzylthio-4R-methyl-7-oxo-1-azabicyclo[3.2.0]hept-2-ene-2-carboxylic Acid]",AUC,[1],11000 ng·h/mL
same,half-life,[1]; blood half-life,13 min
same,Cmax,"[1]; read-out: Cmax, PO/50",33000 ng/mL
same,half-life,[2]; [4],144 min
same,half-life,[2]; [5],246 min
"CSC1=C(C(=O)O)N2C(=O)[C@H]([C@H](C)O)[C@H]2[C@H]1C [Procedure 4, (5S,6S) Potassium 6-(1′S-hydroxyethyl)-4R-methyl-3-methylthio-7-oxo-1-azabicyclo[3.2.0]hept-2-ene-2-carboxylate]",half-life,[2]; [6],9600 min
"CCSC1=C(C(=O)O)N2C(=O)[C@H]([C@@H](C)N)[C@H]2[C@H]1C [Procedure 7, (5S,6R) 6-(1′R-Aminoethyl)-3-ethylthio-4R-methyl-7-oxo-1-azabicyclo[3.2.0]hept-2-ene-2-carboxylic Acid]",half-life,[2]; [7],168 min
same,half-life,[2]; [6],258 min
C[C@@H](N)[C@H]1C(=O)N2C(C(=O)O)=C(SCCF)[C@H](C)[C@H]12 [Procedure 23],M.I.C. Staph. serum,[3],16.000
"C[C@@H](N)[C@H]1C(=O)N2C(C(=O)O)=C(SCCC#N)[C@H](C)[C@H]12 [Procedure 26, (5S,6R)-6-(1′R-Aminoethyl)-3-(2-cyanoethylthio)-4R-methyl-7-oxo-1-azabicyclo[3.2.0]hept-2-ene-2-carboxylic Acid]",half-life,[2]; [7],176 min
same,half-life,[2]; [6],168 min
"C[C@H](N)[C@H]1C(=O)N2C(C(=O)O)=C(SCCC#N)[C@H](C)[C@H]12 [Procedure 35, (5S,6R) 6-(1′S-Aminoethyl)-3-(2-cyanoethylthio)-4R-methyl-7-oxo-1-azabicyclo[3.2.0]hept-2-ene-2-carboxylic Acid]",half-life,[2]; [4],35 min
same,half-life,[2]; [5],90 min
CSC1=C(C(=O)[O-])N2C(=O)[C@H]([C@@H](C)[N+](C)(C)C)[C@H]2[C@H]1C [Procedure 36],M.I.C. Staph. serum,[3],63.000
CSC1=C(C(=O)O)N2C(=O)[C@H]([C@@H](C)NC(=O)CNC(=O)[C@@H](N)CC(C)C)[C@H]2[C@H]1C [Procedure 37],M.I.C. Staph. serum,[3],16.000
"CC[C@H]1C(SC)=C(C(=O)O)N2C(=O)[C@H]([C@H](C)N)[C@@H]12 [Procedure 49, (5S,6R) 6-(1′S-Aminoethyl)-4R-ethyl-3-methylthio-7-oxo-1-azabicyclo[3.2.0]hept-2-ene-2-carboxylic Acid]",M.I.C. Staph. serum,[3],63.000
"CSC1=C(C(=O)O)N2C(=O)[C@H]([C@H](C)N)[C@H]2[C@H]1C [Procedure 57, (5S,6R) 6-(1S-Aminoethyl)-4R-methyl-3-methylthio-7-oxo-1-1-azabicyclo[3.2.0]hept-2-ene-2-carboxylate]",M.I.C. Staph. serum,[3],16.000
C[C@H](N)[C@H]1C(=O)N2C(C(=O)O)=C(SCc3cccnc3)[C@H](C)[C@H]12 [Procedure 58],M.I.C. Staph. serum,[3],4.000
"CSC1=C(C(=O)[O-])N2C(=O)[C@H]([C@H](C)[N+](C)(C)C)[C@H]2[C@H]1C [Procedure 59, (5S,6R) 6-(1′S-N-Trimethylammonium-ethyl)-4R-methyl-3-methylthio-7-oxo-1-azabicyclo[3.2.0]hept-2-ene-2-carboxylate]",M.I.C. Staph. serum,[3],8.000
"CCSC1=C(C(=O)O)N2C(=O)[C@H]([C@H](C)N)[C@H]2[C@H]1C [Procedure 60, (5S,6R) 6-(1′S-aminoethyl)-3-ethylthio-4R-methyl-7-oxo-1-azabicyclo[3.2.0]hept-2-ene-2-carboxylic acid]",M.I.C. Staph. serum,[3],8.000
"CSC1=C(C(=O)O)N2C(=O)[C@H]([C@H](C)NC(=O)CNC(=O)[C@@H](N)CC(C)C)[C@H]2[C@H]1C [Procedure 61, (5S,6R) 6-(1′S-(L-Leucylglycyl)aminoethyl)-4R-methyl-3-methylthio-7-oxo-1-azabicyclo[3.2.0]hept-2-ene-2-carboxylic Acid]",M.I.C. Staph. serum,[3],63.000

# From patent EP0372582A2, “6-Aminoalkyl carbapenems” (Bristol-Myers Squibb Company, priority 1988, dated 1990)
